Assay results as given in article PMC10033812, “Imaging the TGFβ type I receptor in pulmonary arterial hypertension” (EJNMMI Research, 2023).

What was measured:
[1] = Ex vivo biodistribution study in healthy male Wistar rats; set-up: species or system rat; conditions: i.v., ± SEM; for Retention in healthy lung tissue: 15 min p.i., n = 4
Method: A biodistribution study and metabolite analysis was carried out in healthy male Wistar rats (214 ± 15 g, Charles River, Germany). Rats were injected with 21 ± 15 MBq of [^11C]LR111 in the tail vein under isoflurane anaesthesia (2% in O2 at 1 L min^−1). Rats were sacrificed under similar isoflurane anaesthesia by exsanguination and dissected at 5, 15, 30 and 60 min post injection (p.i.) (n = 4 per time point). Rats were injected with 14 ± 5 MBq [^18F]EW-7197 in the tail vein under isoflurane anaesthesia (2% in O2 at 1 L min^−1). Rats were sacrificed under similar isoflurane anaesthesia by exsanguination and dissected at 5, 15, 30 and 45 min post injection (p.i.) (n = 4 per time point). Blood, heart, lungs, liver, kidneys, urine, bone and brain were collected, weighed and counted for radioactivity (Wallac 1210 Compugamma, PerkinElmer, Waltham, MA, USA). Biodistribution data were expressed as percentage injected dose per gram tissue (%ID·g^−1) ± standard error of the mean (SEM). Blood at 15 min and 60 min p.i. ([^11C]LR111) and blood at 15 min and 45 min p.i. ([^18F]EW-7197), withdrawn from the abdominal aorta, (~ 7 mL) was collected in a heparin coated tube and centrifuged at 5000 rpm to separate plasma from blood cells (Hettich universal 32, Andreas Hettich GmbH & Co. KG, Tuttlingen, Germany). […] Fractions were counted for radioactivity (Wallac 1210 Compugamma, PerkinElmer, Waltham, MA, USA). The percentage of intact tracer in the non-polar fraction was determined by online HPLC analysis on a Dionex (Sunnyvale, CA, USA) UltiMate 3000 HPLC equipment with Chromeleon software (version 6.8) equipped with a Gemini C18 column (5 μm, 10 × 250 mm, Phenomenex, Torrance, CA, USA) with a mixture of MeCN (A) and 0.1% TFA in water (B) as eluent according to the following scheme 0 min: 90% B; 12 min 15% B; 8 min 90% B at 3.5 mL.min^−1 [^11C]LR111 Rt = 10.7 min and [^18F]EW-7197 Rt = 9.2 min. Results were expressed as percentage of intact tracer, polar metabolites and non-polar metabolites ± SEM (n = 4 for each time point).

ALK5 [2] = target: T1, ALK5 (Rattus norvegicus, UniProt P80204); assay: Autoradiography on control, MCT- and SuHx-exposed rat lung sections; format: binding; conditions: for Binding to MCT-exposed lungs compared with control lungs: MCT-exposed lungs (Wistar) vs healthy lungs normalized to 100%; for Binding to MCT-exposed lungs compared with control lungs / Binding to SuHx-exposed lungs compared with control lungs: n = 3; for Binding to SuHx-exposed lungs compared with control lungs: SuHx-exposed lungs (S.D.) vs healthy lungs normalized to 100%
T1 sequence (P80204 30-501): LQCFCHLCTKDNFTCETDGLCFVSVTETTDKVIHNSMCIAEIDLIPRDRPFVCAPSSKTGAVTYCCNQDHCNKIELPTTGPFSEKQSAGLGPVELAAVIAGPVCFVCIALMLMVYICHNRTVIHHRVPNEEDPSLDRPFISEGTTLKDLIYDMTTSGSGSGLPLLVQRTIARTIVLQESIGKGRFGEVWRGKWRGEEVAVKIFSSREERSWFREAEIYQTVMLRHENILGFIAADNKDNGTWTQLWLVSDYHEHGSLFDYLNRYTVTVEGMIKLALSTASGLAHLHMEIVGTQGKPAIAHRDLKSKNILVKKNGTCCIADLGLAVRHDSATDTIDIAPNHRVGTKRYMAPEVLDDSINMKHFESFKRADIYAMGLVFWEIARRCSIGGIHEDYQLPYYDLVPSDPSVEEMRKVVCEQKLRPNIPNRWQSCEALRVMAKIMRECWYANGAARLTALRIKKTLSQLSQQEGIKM
Method: Sections of 10 μm thickness were cut using a Cryostat ([…]) and thaw mounted on Thermo Scientific Superfrost plus adhesion slides. The sections were stored at- 20 °C until further handling. Tissue sections were defrosted, washed three times for 5 min with 5 mM Tris HCl buffer, pH 7.4 and dried in a cold stream of air. […] Sigma-Aldrich, Zwijndrecht, The Netherlands). The sections were washed in cold 5 mM Tris HCl buffer, pH 7.4, (three times 1 min) followed by a dip in ice cold water. […] Screens were developed on a Typhoon FLA 7000 phosphor imager (GE Healthcare lifescience, Buckinghamshire, UK) and analysed using Image Quant TL v8.1.0.0 (GE Healthcare lifescience, Buckinghamshire, UK). […] Statistical analysis was performed using Graphpad PRISM (v 5.02, Graphpad Software Inc). Tracer uptake in the tissue was compared with tracer uptake co-administered with SB431542 by using a one-tailed unpaired t-test. Differences were considered significant if p < 0.05. Adjacent tissue sections were used for autoradiography experiments.

[3] = Ex vivo metabolite analysis in rat blood plasma (SPE/HPLC); conditions: for Intact tracer: rat blood plasma, ± SEM, n = 4; for In vivo metabolic stability in rats: in words
Method: A biodistribution study and metabolite analysis was carried out in healthy male Wistar rats (214 ± 15 g, Charles River, Germany). Rats were injected with 21 ± 15 MBq of [^11C]LR111 in the tail vein under isoflurane anaesthesia (2% in O2 at 1 L min^−1). Rats were sacrificed under similar isoflurane anaesthesia by exsanguination and dissected at 5, 15, 30 and 60 min post injection (p.i.) (n = 4 per time point). Rats were injected with 14 ± 5 MBq [^18F]EW-7197 in the tail vein under isoflurane anaesthesia (2% in O2 at 1 L min^−1). Rats were sacrificed under similar isoflurane anaesthesia by exsanguination and dissected at 5, 15, 30 and 45 min post injection (p.i.) (n = 4 per time point). Blood, heart, lungs, liver, kidneys, urine, bone and brain were collected, weighed and counted for radioactivity (Wallac 1210 Compugamma, PerkinElmer, Waltham, MA, USA). Biodistribution data were expressed as percentage injected dose per gram tissue (%ID·g^−1) ± standard error of the mean (SEM). Blood at 15 min and 60 min p.i. ([^11C]LR111) and blood at 15 min and 45 min p.i. ([^18F]EW-7197), withdrawn from the abdominal aorta, (~ 7 mL) was collected in a heparin coated tube and centrifuged at 5000 rpm to separate plasma from blood cells (Hettich universal 32, Andreas Hettich GmbH & Co. KG, Tuttlingen, Germany). Solid phase extraction (SPE) cartridges (tC2, Waters, Ettenleur, The Netherlands) were preconditioned by washing with 6 mL MeOH and 2 × 6 mL H2O. Plasma (1 mL) was mixed with 6.0 M HCl (50 µL) and loaded on the SPE cartridge (> 99% recovery). The polar metabolite fraction was obtained by eluting the SPE cartridge with H2O (3 mL), the non-polar fraction by subsequent elution with MeOH (2 mL) and H2O (1 mL). Fractions were counted for radioactivity (Wallac 1210 Compugamma, PerkinElmer, Waltham, MA, USA). The percentage of intact tracer in the non-polar fraction was determined by online HPLC analysis on a Dionex (Sunnyvale, CA, USA) UltiMate 3000 HPLC equipment with Chromeleon software (version 6.8) equipped with a Gemini C18 column (5 μm, 10 × 250 mm, Phenomenex, Torrance, CA, USA) with a mixture of MeCN (A) and 0.1% TFA in water (B) as eluent according to the following scheme 0 min: 90% B; 12 min 15% B; 8 min 90% B at 3.5 mL.min^−1 [^11C]LR111 Rt = 10.7 min and [^18F]EW-7197 Rt = 9.2 min. Results were expressed as percentage of intact tracer, polar metabolites and non-polar metabolites ± SEM (n = 4 for each time point).

ALK5 [4] = target: T1, ALK5; assay: Dynamic PET imaging of lung uptake in control, MCT- and SuHx-exposed rats; format: in vivo; conditions: for Difference in lung uptake between control group and diseased animals after 15 min: after 15 min p.i.
Method: Dynamic PET imaging was performed with NanoPET/CT and nanoPET/MR 1 T scanners (Mediso Ltd., Hungary, Budapest) with identical PET components. All injections were performed via a tail vein catheter. […] Rats were positioned on the scanner bed and the respiratory rate was monitored for the duration of the experiment, adjusting anaesthesia when required. Animals first underwent a computed tomography (CT) or magnetic resonance imaging (MRI) scan to keep the isoflurane exposure as low as possible (see Fig. 2 for the set-up of the experiment). […] Dynamic PET scans, starting at the time of tracer administration, were acquired for 60 min. […] At day 2, all animals received SB431542 30 min prior the injection of [^11C]LR111. In addition, the control group received a cyclosporine A (Sigma-Aldrich, Zwijndrecht, The Netherlands) injection at day 3, 30 min prior to the injection of [^11C]LR111. Finally, at day 4, SB431542 and cyclosporine A injections were administered 30 min prior to the injection of [^11C]LR111. After these scanning experiments, the animals were sacrificed by cervical dislocation. Lung tissues were removed from MCT (n = 3), SuHx (n = 3) and healthy rats (n = 3). They were filled with 50% Tissue-Tek (VWR, Amsterdam, The Netherlands) and 50% physiological salt and snap frozen in liquid nitrogen. Positron emission scans were acquired in list mode and rebinned into the following frame sequence: 4 × 5, 4 × 10, 2 × 30, 3 × 60, 2 × 300, 1 × 600, 1 × 900 and 1 × 1200 s. The scans were reconstructed with a spatial resolution of 0.4 mm and were corrected for attenuation and scatter. The scans of the first 30 s were combined to correct for injection speed differences. Images were analysed using the freely available software AMIDE, version 1.0.4 (http://amide.sourceforge.net/). […] Uptake was expressed as standard uptake values (SUV), which was calculated according to the following equation: SUV=%uptake of the total tracer dose/volume of the region of interest/bodyweight Error bars indicate standard deviation. Statistical analysis was performed using Graphpad PRISM (v 5.02, Graphpad Software Inc). Lung uptake in the control group was compared with uptake in the diseased animals with a one-tailed unpaired t-test. Differences were considered significant if p < 0.05. The representative PET images were generated using VivoQuant2020.

P-gp = assay: PET imaging after cyclosporine A (efflux pump inhibitor) in healthy rats; format: in vivo, rat; conditions: increased lung uptake in healthy rats after cyclosporine A
Method: Dynamic PET imaging was performed with NanoPET/CT and nanoPET/MR 1 T scanners (Mediso Ltd., Hungary, Budapest) with identical PET components. All injections were performed via a tail vein catheter. […] Rats were positioned on the scanner bed and the respiratory rate was monitored for the duration of the experiment, adjusting anaesthesia when required. Animals first underwent a computed tomography (CT) or magnetic resonance imaging (MRI) scan to keep the isoflurane exposure as low as possible (see Fig. 2 for the set-up of the experiment). All tracer injections were performed via a tail vein catheter using 4 and 2% isoflurane in 1 L min^−1 oxygen for induction and maintenance, respectively (see Table 1 for animal weights and injected doses). Dynamic PET scans, starting at the time of tracer administration, were acquired for 60 min. Immediately after the [^11C]LR111 scan, a bolus injection of [^18F]EW-7197 was administered, in order to minimize the time that rats were exposed to isoflurane, and another dynamic PET scan was acquired. […] Images were analysed using the freely available software AMIDE, version 1.0.4 (http://amide.sourceforge.net/). […] Uptake was expressed as standard uptake values (SUV), which was calculated according to the following equation: SUV=%uptake of the total tracer dose/volume of the region of interest/bodyweight

[5] = PET, 15 min p.i., MCT rats, baseline scan
[6] = PET, 15 min p.i., SuHx rats, baseline scan
[7] = PET, 15 min p.i., healthy Wistar rats, SB431542 20 mg kg^−1 30 min prior
[8] = PET, 15 min p.i., healthy Wistar rats, baseline
[9] = PET, 15 min p.i., healthy Wistar rats, cyclosporine A 50 mg kg^−1 30 min prior
[10] = PET, 15 min p.i., healthy Wistar rats, cyclosporine A + SB431542
[11] = PET, 15 min p.i., healthy Wistar rats

Retention in healthy lung tissue [1] [% ID·g^−1]	Binding to MCT-exposed lungs compared with control lungs (ALK5 [2]) [times]	Binding to SuHx-exposed lungs compared with control lungs (ALK5 [2]) [times]	Intact tracer ([3]; 15 min p.i.) [%]	In vivo metabolic stability in rats [3]	Lung uptake in MCT-exposed rats compared with control group (ALK5 [4]; PET, 15 min p.i.) [fold]	Lung uptake in SuHx rats compared with control group (ALK5 [4]; PET, 15 min p.i.)	Uptake in the lungs (ALK5 [4]; [5]) [SUV]	Uptake in the lungs (ALK5 [4]; [6]) [SUV]	Uptake in the lungs (ALK5 [4]; [7]) [SUV]	Uptake in the lungs (ALK5 [4]; [8]) [SUV]	Uptake in the lungs (ALK5 [4]; [9]) [SUV]	Uptake in the lungs (ALK5 [4]; [10]) [SUV]	Difference in lung uptake between control group and diseased animals after 15 min (ALK5 [4]; PET)	Compound	also measured
0.45 ± 0.03	1.5	3.2	74 ± 5	moderately stable	1.1	similar	1.10 ± 0.25	1.04 ± 0.13	0.85 ± 0.12	1.03 ± 0.07	0.85 ± 0.19	1.00 ± 0.32	no difference	Cc1csc(-c2nc(CN[11C](=O)OCC(C)C)[nH]c2-c2ccc3ncsc3c2)n1 [[^11C]LR111]	Tracer binding when SB431542 was added (ALK5 [2]; SB431542 94 µM): could be blocked; Intact tracer ([3]; 60 min p.i.): 46 ± 2%
0.56 ± 0.07	1.2	1.2	55 ± 16	moderately stable	1.4	2.5 fold	0.81 ± 0.15	1.47 ± 0.47	0.44 ± 0.12	0.59 ± 0.10	0.90 ± 0.18	0.72 ± 0.21	no difference	Cc1cccc(-c2[nH]c(CNc3ccccc3[18F])nc2-c2ccc3ncnn3c2)n1 [[^18F]EW-7197, N-((4-(1,2,4 triazolo 1,5-apyridin-6-yl)-5-(6-methylpyridin-2-yl)-1H-imidazol-2-yl)methyl)-2-fluoroaniline]	Retention in bone [1]: 0.21 ± 0.02 % ID·g^−1; Substrate for P-gp (P-gp): substrate for P-gp; Intact tracer ([3]; 45 min p.i.): 23 ± 5%; Blocking of lung uptake with SB431542 in PET scans (ALK5 [4]; PET images, SB431542 20 mg kg^−1): could be blocked; Lung accumulation with cyclosporine A and SB431542 relative to baseline (ALK5 [4]; [11]): 1.2 fold; Lung accumulation with cyclosporine A relative to baseline (ALK5 [4]; [11]): 1.5 fold
